IC50 data for 29 molecules are collected here from patent US20230234943A1, “TREX1 INHIBITORS AND USES THEREOF” (Tempest Therapeutics, Inc., priority 2020, published 2023).

Structures are written as SMILES. pIC50: −log10 of the molar value.

The target of the assay is T1, Human TREX1 enzyme (amino acids 1-242) (Homo sapiens, UniProt Q9NSU2).
T1 construct: Human TREX1 enzyme (amino acids 1-242)
T1 sequence (Q9NSU2 1-242): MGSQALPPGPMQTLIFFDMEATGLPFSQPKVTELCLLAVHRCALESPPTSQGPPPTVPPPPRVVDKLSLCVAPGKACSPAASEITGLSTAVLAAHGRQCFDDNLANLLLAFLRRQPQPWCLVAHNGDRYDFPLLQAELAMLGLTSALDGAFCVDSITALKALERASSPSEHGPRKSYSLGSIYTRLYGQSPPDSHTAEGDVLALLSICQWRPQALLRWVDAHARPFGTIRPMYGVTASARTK
Description: Human TREX1 enzymatic assay with dsDNA native oligonucleotide (Picogreen fluorescence). Format: biochemical. To be noted: 2 mM dithiothreitol in assay buffer; 50 nM dsDNA oligonucleotide; 30 min preincubation at 25° C.; read-out: TREX1/Human + DTT IC50 AVG. Put shortly:
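TREX1 (0.8–0.16 nM final) preincubated with compound (300 μM–13 nM or 30 μM–1.5 nM, 2% DMSO) 30 min at 25 °C in Tris pH 7.7, 5 mM MgCl2, 2 mM DTT. Annealed dsDNA (50 nM) added for 5–15 min at 25 °C; EDTA quench with Picogreen fluorescence readout.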
Consider `COc1cc(-c2nc3ccc(C(=O)Nc4ccccc4)cc3n2C2(C)COC2)c(F)c(O)c1O` [Example 246, 2-(2-fluoro-3,4-dihydroxy-5-methoxyphenyl)-1-(3-methyloxetan-3-yl)-N-phenyl-1H-benzo[d]imidazole-6-carboxamide], for which the pIC50 is ≥ 7.00.

Turning to `COc1cc(-c2nc3ccc(C(=O)Nc4cnoc4)cc3n2C2(C)COC2)c(F)c(O)c1O` [Example 247, 2-(2-fluoro-3,4-dihydroxy-5-methoxyphenyl)-N-(isoxazol-4-yl)-1-(3-methyloxetan-3-yl)-1H-benzo[d]imidazole-6-carboxamide], the pIC50 was ≥ 7.00.

For the molecule `COc1cc(-c2nc3ccc(C(=O)Nc4ccncc4)cc3n2C2(C)COC2)c(F)c(O)c1O` [Example 248, 2-(2-fluoro-3,4-dihydroxy-5-methoxyphenyl)-1-(3-methyloxetan-3-yl)-N-(pyridin-4-yl)-1H-1,3-benzodiazole-6-carboxamide], the pIC50 is ≥ 7.00.

For `COc1cc(-c2nc3ccc(C(=O)NC45CC(C4)C5)cc3n2C2(C)COC2)c(F)c(O)c1O` [Example 249, N-(bicyclo[1.1.1]pentan-1-yl)-2-(2-fluoro-3,4-dihydroxy-5-methoxyphenyl)-1-(3-methyloxetan-3-yl)-1H-benzo[d]imidazole-6-carboxamide], the pIC50 is ≥ 7.00.

`COc1cc(-c2nc3ccc(C(=O)Nc4cccnc4)cc3n2C2(C)COC2)c(F)c(O)c1O` [Example 250, 2-(2-fluoro-3,4-dihydroxy-5-methoxyphenyl)-1-(3-methyloxetan-3-yl)-N-(pyridin-3-yl)-1H-1,3-benzodiazole-6-carboxamide]: the pIC50 was ≥ 7.00.

As for `COc1cc(-c2nc3ccc(C(=O)NCC(F)F)cc3n2C2(C)COC2)c(F)c(O)c1O` [Example 251, N-(2,2-difluoroethyl)-2-(2-fluoro-3,4-dihydroxy-5-methoxyphenyl)-1-(3-methyloxetan-3-yl)-1H-1,3-benzodiazole-6-carboxamide], the pIC50 was ≥ 7.00.

For `COc1cc(-c2nc3ccc(C(=O)NC(C)C)cc3n2C2(C)COC2)c(F)c(O)c1O` [Example 252, 2-(2-fluoro-3,4-dihydroxy-5-methoxyphenyl)-N-isopropyl-1-(3-methyloxetan-3-yl)-1H-benzo[d]imidazole-6-carboxamide], the pIC50 was ≥ 7.00.

Take `COc1cc(-c2nc3ccc(C(=O)NC4CC4)cc3n2C2(C)COC2)c(F)c(O)c1O` [Example 253, N-cyclopropyl-2-(2-fluoro-3,4-dihydroxy-5-methoxyphenyl)-1-(3-methyloxetan-3-yl)-1H-benzo[d]imidazole-6-carboxamide]: the pIC50 was ≥ 7.00.

On to `COc1cc(-c2nc3ccc(C(=O)NC4COC4)cc3n2C2(C)COC2)c(F)c(O)c1O` [Example 254, 2-(2-fluoro-3,4-dihydroxy-5-methoxyphenyl)-1-(3-methyloxetan-3-yl)-N-(oxetan-3-yl)-1H-benzo[d]imidazole-6-carboxamide], for which the pIC50 is ≥ 7.00.

For the molecule `COc1cc(-c2nc3ccc(C(=O)NC4CCNCC4)cc3n2C2(C)COC2)c(F)c(O)c1O` [Example 255, 2-(2-fluoro-3,4-dihydroxy-5-methoxyphenyl)-1-(3-methyloxetan-3-yl)-N-(piperidin-4-yl)-1H-benzo[d]imidazole-6-carboxamide], the pIC50 is 6.00 to 7.00.

As to `COc1cc(-c2nc3ccc(C(=O)NC4CCC(F)(F)CC4)cc3n2C2(C)COC2)c(F)c(O)c1O` [Example 256, N-(4,4-difluorocyclohexyl)-2-(2-fluoro-3,4-dihydroxy-5-methoxyphenyl)-1-(3-methyloxetan-3-yl)-1H-benzo[d]imidazole-6-carboxamide], the pIC50 is ≥ 7.00.

As to `COc1cc(-c2nc3ccc(C(=O)NC4CCN(C)C4)cc3n2C2(C)COC2)c(F)c(O)c1O` (centres unmarked) [Example 257, 2-(2-fluoro-3,4-dihydroxy-5-methoxyphenyl)-1-(3-methyloxetan-3-yl)-N-(1-methylpyrrolidin-3-yl)-1H-benzo[d]imidazole-6-carboxamide], the pIC50 was 6.00 to 7.00.

As for `COc1cc(-c2nc3ccc(C(=O)Nc4ccon4)cc3n2C2(C)COC2)c(F)c(O)c1O` [Example 258, 2-(2-fluoro-3,4-dihydroxy-5-methoxyphenyl)-1-(3-methyloxetan-3-yl)-N-(1,2-oxazol-3-yl)-1H-1,3-benzodiazole-6-carboxamide], the pIC50 is ≥ 7.00.

As for `COc1cc(-c2nc3ccc(C(=O)NC4CNC4)cc3n2C2(C)COC2)c(F)c(O)c1O` [Example 259, N-(azetidin-3-yl)-2-(2-fluoro-3,4-dihydroxy-5-methoxyphenyl)-1-(3-methyloxetan-3-yl)-1H-1,3-benzodiazole-6-carboxamide], the pIC50 is ≥ 7.00.

Consider `COc1cc(-c2nc3ccc(C(=O)NC4CCN(C)CC4)cc3n2C2(C)COC2)c(F)c(O)c1O` [Example 260, 2-(2-fluoro-3,4-dihydroxy-5-methoxyphenyl)-1-(3-methyloxetan-3-yl)-N-(1-methylpiperidin-4-yl)-1H-1,3-benzodiazole-6-carboxamide], for which the pIC50 was 6.00 to 7.00.

In the case of `COc1cc(-c2nc3ccc(C(=O)NC4CCNC4)cc3n2C2(C)COC2)c(F)c(O)c1O` (centres unmarked) [Example 261, 2-(2-fluoro-3,4-dihydroxy-5-methoxyphenyl)-1-(3-methyloxetan-3-yl)-N-(pyrrolidin-3-yl)-1H-benzo[d]imidazole-6-carboxamide], the pIC50 was 6.00 to 7.00.

For `CCNC(=O)c1ccc2nc(-c3cc(OC)c(O)c(O)c3F)n(C3(C)COC3)c2c1` [Example 262, N-ethyl-2-(2-fluoro-3,4-dihydroxy-5-methoxyphenyl)-1-(3-methyloxetan-3-yl)-1H-benzo[d]imidazole-6-carboxamide], the pIC50 was ≥ 7.00.

For the molecule `COc1cc(-c2nc3ccc(C(=O)NCC4(F)CC4)cc3n2C2(C)COC2)c(F)c(O)c1O` [Example 263, 2-(2-fluoro-3,4-dihydroxy-5-methoxyphenyl)-N-[(1-fluorocyclopropyl)methyl]-1-(3-methyloxetan-3-yl)-1H-1,3-benzodiazole-6-carboxamide.], the pIC50 is ≥ 7.00.

Regarding `CCNC(=O)c1ccc2nc(-c3cc(OC)c(O)c(O)c3F)n(C34CC(C3)C4)c2c1` [Example 264, 1-(bicyclo[1.1.1]pentan-1-yl)-N-ethyl-2-(2-fluoro-3,4-dihydroxy-5-methoxyphenyl)-1H-benzo[d]imidazole-6-carboxamide], the pIC50 was ≥ 7.00.

With `COc1cc(-c2nc3ccc(-c4cnn(C)c4)cc3n2C2(C)COC2)c(F)c(O)c1O` [Example 265, 3-fluoro-6-methoxy-4-(6-(1-methyl-1H-pyrazol-4-yl)-1-(3-methyloxetan-3-yl)-1H-benzo[d]imidazol-2-yl)benzene-1,2-diol], the pIC50 is ≥ 7.00.

As to `COc1cc(-c2nc3ccc(-c4ccnn4C)cc3n2C2(C)COC2)c(F)c(O)c1O` [Example 266, 3-fluoro-6-methoxy-4-(6-(1-methyl-1H-pyrazol-5-yl)-1-(3-methyloxetan-3-yl)-1H-benzo[d]imidazol-2-yl)benzene-1,2-diol], the pIC50 is 5.00 to 6.00.

For the molecule `COc1cc(-c2nc3ccc(-c4ncccn4)cc3n2C2(C)COC2)c(F)c(O)c1O` [Example 267, 3-fluoro-6-methoxy-4-(1-(3-methyloxetan-3-yl)-6-(pyrimidin-2-yl)-1H-benzo[d]imidazol-2-yl)benzene-1,2-diol], the pIC50 was ≥ 7.00.

For the molecule `COc1cc(-c2nc3cc(C4CCC4)ccc3[nH]2)cc(O)c1O` [Example 268, 5-(5-cyclobutyl-1H-benzo[d]imidazol-2-yl)-3-methoxybenzene-1,2-diol], the pIC50 is < 4.00.

For `COc1cc(-c2nc3ccc(-c4ccc(F)cn4)cc3n2C2(C)COC2)c(F)c(O)c1O` [Example 269, 3-fluoro-4-(6-(5-fluoropyridin-2-yl)-1-(3-methyloxetan-3-yl)-1H-benzo[d]imidazol-2-yl)-6-methoxybenzene-1,2-diol], the pIC50 was ≥ 7.00.

Take `COc1cc(-c2nc3ccc(-c4ncc(F)cn4)cc3n2C2(C)COC2)c(F)c(O)c1O` [Example 270, 3-fluoro-4-(6-(5-fluoropyrimidin-2-yl)-1-(3-methyloxetan-3-yl)-1H-benzo[d]imidazol-2-yl)-6-methoxybenzene-1,2-diol]: the pIC50 is ≥ 7.00.

On to `COc1cc(-c2nc3cc(N4CCOC4=O)ccc3n2C2(C)COC2)c(F)c(O)c1O` [Example 271, 3-(2-(2-fluoro-3,4-dihydroxy-5-methoxyphenyl)-1-(3-methyloxetan-3-yl)-1H-benzo[d]imidazol-5-yl)oxazolidin-2-one], for which the pIC50 was ≥ 7.00.

For the molecule `COc1cc(-c2nc3cc(N4CCC4=O)ccc3n2C2(C)COC2)c(F)c(O)c1O` [Example 272, 1-(2-(2-fluoro-3,4-dihydroxy-5-methoxyphenyl)-1-(3-methyloxetan-3-yl)-1H-benzo[d]imidazol-5-yl)azetidin-2-one], the pIC50 was 6.00 to 7.00.

In the case of `COc1cc(-c2nc3cc(N4CCN(C)CC4=O)ccc3n2C2(C)COC2)c(F)c(O)c1O` [Example 273, 1-(2-(2-fluoro-3,4-dihydroxy-5-methoxyphenyl)-1-(3-methyloxetan-3-yl)-1H-benzo[d]imidazol-5-yl)-4-methylpiperazin-2-one], the pIC50 is 6.00 to 7.00.

With `COc1cc(-c2nc3cc(N4CCN(C5CC5)CC4)ccc3[nH]2)cc(O)c1O` [Example 274, 5-(5-(4-cyclopropylpiperazin-1-yl)-1H-benzo[d]imidazol-2-yl)-3-methoxybenzene-1,2-diol], the pIC50 was < 4.00.
